From patent publication US20070265240A1, “Sequence Selective Pyrrole and Imidazole Polyamide Metallocomplexes” (priority 2003, published 2007)

Tests used:
[1] = test system: d(CATTGTCAGAC)2 (target site); assay: CD titration, affinity constant for target-site duplex; assay type: binding; settings: derived from CD titrations; 5 μM duplex DNA, 10 mM sodium phosphate pH 7.0, 40 mM NaCl, room temperature
Protocol: (§1) The changes are generally monitored until saturation is reached. The equilibrium constant can be determined using standard techniques, such as Scatchard plot, the McGhee Von Hippel model, or least squares, for analysis.
(§2) All CD measurements were recorded on a Jasco J-810 CD spectropolarimeter at room temperature and cell length of 1 cm. Titrations were performed by incrementally adding aliquots of Im/Py/Py-Pt to a 2600 μL solution of 5 μM duplex DNA. After each addition, an average CD spectrum from 240 to 400 nm (20 accumulations) was recorded. DNA concentration was 5 μM. The concentration of Im/Py/Py-Pt ranged from 0 to 10 μM. Solution conditions were 10 mM sodium phosphate (pH 7.0) and 40 mM NaCl.

[2] = test system: d(CATTGACAGAC)2 (single mismatch site); assay: CD titration, affinity constant for single-mismatch duplex; assay type: binding; settings: derived from CD titrations; 5 μM duplex DNA, 10 mM sodium phosphate pH 7.0, 40 mM NaCl, room temperature
Protocol: as §1, §2

[3] = test system: d(CATTGAGAGAC)2 (double mismatch site); assay: CD titration, affinity constant for double-mismatch duplex; assay type: binding; settings: derived from CD titrations; 5 μM duplex DNA, 10 mM sodium phosphate pH 7.0, 40 mM NaCl, room temperature
Protocol: as §1, §2

[4] = test system: relaxed and negatively supercoiled pUC19 DNA; settings: value reported for cisplatin; cited from earlier work
[5] = test system: relaxed and negatively supercoiled pUC19 DNA; assay: DNA unwinding experiment by gel electrophoresis; assay type: binding; settings: pUC19 plasmid incubated 1.5 hr at 37° C., rb 0-0.074
Protocol: Lanes: 0 Control rb=0; 1, rb=0.008; 2, rb=0.0.016; 3, rb=0.025; 4, rb=0.033; 5, rb=0.041; 6, rb=0.049; 7, rb=0.057; 8, rb=0.066; 9, rb=0.074.
The unwinding angle was determined to be 13° for this experiment, which is the same as that reported for cisplatin (13°). The plasmid was incubated with Im/Py/Py-Pt for 1.5 hr at 37° C. Lanes: 0 Control rb=0; 1, rb=0.008; 2, rb=0.0.016; 3, rb=0.025; 4, rb=0.033; 5, rb=0.041; 6, rb=0.049; 7, rb=0.057; 8, rb=0.066; 9, rb=0.074. The top bands correspond to the form of nicked plasmid and the bottom bands to the closed, negatively supercoiled plasmid shown in FIG. 4.

[6] = test system: recombinant pSP64 derivative; assay: In vitro transcription assay (inhibition of RNA synthesis); assay type: biochemical; settings: increasing molar concentration; after 12 hour platination in the dark at 4° C.; 40 mM Tris-HCl pH 7.9
Protocol: FIG. 5—In vitro Transcription Assay “trans-Im/Py/Py-[CONH(CH2)2—NH2)Pt(NH3)2Cl” (“DJ1953-2”) The Inhibition of RNA synthesis by DJ1953-2 was assessed using a recombinant pSP64 derivative. Incubations were carried out in 40 mM Tris-HCl (pH 7.9), 6 mM MgCl2, 2 mM spermidine, 10 mM NaCl. Lane (1) 100-500 bases RNA marker; (2) to (8) increasing molar concentration of DJ1953-2. […] Experiments were conducted after 12 hour platination reactions (in the dark at 4° C.).
The Inhibition of RNA synthesis by DJ1953-2 was assessed using a recombinant pSP64 derivative. Incubations were carried out in 40 mM Tris-HCl (pH 7.9), 6 mM MgCl2, 2 mM spermidine, 10 mM NaCl. Lane (1) 100-500 bases RNA marker; Lanes (2) to (8) increasing molar concentration of DJ1953-2. […] Experiments were conducted after 12 hour platination reactions (in the dark at 4° C.).

| Molecule | apparent first-order affinity constant K for binding site d(CATTGTCAGAC)2 [1] | apparent first-order affinity constant K for binding site d(CATTGACAGAC)2 [2] | apparent first-order affinity constant K for binding site d(CATTGAGAGAC)2 [3] | unwinding angle (reported) [4] | unwinding angle [5] | inhibition of RNA synthesis (full-length transcript, 335 bases) [6] |
| --- | --- | --- | --- | --- | --- | --- |
| Cn1cc(NC(=O)c2cc(NC(=O)c3nccn3C)cn2C)cc1C(=O)NCCCCCC[NH][Pt]([NH2])([NH2])[Cl] [DJ-1953-6, trans-Im/Py/Py-[CONH(CH2)6—NH2)Pt(NH3)2Cl] | 2.4 × 10^6 (0.1) M^−1 | 4.4 × 10^5 (0.2) M^−1 | 1.3 × 10^6 (0.1) M^−1 | – | – | – |
| N.N.[Cl][Pt][Cl] [cisplatin, cis-diamminedichloroplatinum(II)] | – | – | – | 13 ° | – | – |
| trans-Im/Py/Py-Pt(Cl)(NH3)2 | – | – | – | – | 13 ° | – |
| tans-Im/Py/Py-[CONH(CH2)2—NH2)Pt(NH3)2Cl [DJ-1953-2] | 1.2 × 10^6 (0.1) M^−1 | 5.6 × 10^5 (0.2) M^−1 | 3.0 × 10^5 (0.1) M^−1 | – | – | inhibition of the full-length transcript (FLT) can be seen |
